From BigSolDB 2.1

## C[C@@H]1CC[C@H]2[C@@H](C)C(=O)O[C@@H]3O[C@@]4(C)CC[C@@H]1[C@]32OO4
In 2-butanone, 284.15 K
  solubility (mole fraction): 0.0163
In 2-butanone, 289.15 K
  solubility (mole fraction): 0.0212
In 2-butanone, 295.15 K
  solubility (mole fraction): 0.0292
In 2-butanone, 298.15 K
  solubility (mole fraction): 0.0337
In 2-butanone, 304.15 K
  solubility (mole fraction): 0.046
In 2-butanone, 309.15 K
  solubility (mole fraction): 0.0585
In 2-butanone, 314.15 K
  solubility (mole fraction): 0.0762
In 2-butanone, 319.15 K
  solubility (mole fraction): 0.0919
In 2-butanone, 323.15 K
  solubility (mole fraction): 0.117
In MTBE, 284.15 K
  solubility (mole fraction): 0.00109
In MTBE, 289.15 K
  solubility (mole fraction): 0.00154
In MTBE, 295.15 K
  solubility (mole fraction): 0.00234
In MTBE, 298.15 K
  solubility (mole fraction): 0.00285
In MTBE, 304.15 K
  solubility (mole fraction): 0.00421
In MTBE, 309.15 K
  solubility (mole fraction): 0.00579
In MTBE, 314.15 K
  solubility (mole fraction): 0.0079
In MTBE, 319.15 K
  solubility (mole fraction): 0.0107
In MTBE, 323.15 K
  solubility (mole fraction): 0.0136
In acetone, 284.15 K
  solubility (mole fraction): 0.00405
In acetone, 289.15 K
  solubility (mole fraction): 0.0053
In acetone, 295.15 K
  solubility (mole fraction): 0.0073
In acetone, 298.15 K
  solubility (mole fraction): 0.00848
In acetone, 304.15 K
  solubility (mole fraction): 0.0115
In acetone, 309.15 K
  solubility (mole fraction): 0.0147
In acetone, 314.15 K
  solubility (mole fraction): 0.0187
In acetone, 319.15 K
  solubility (mole fraction): 0.0236
In acetone, 323.15 K
  solubility (mole fraction): 0.0284
In acetonitrile, 284.15 K
  solubility (mole fraction): 0.00084
In acetonitrile, 289.15 K
  solubility (mole fraction): 0.00112
In acetonitrile, 295.15 K
  solubility (mole fraction): 0.00157
In acetonitrile, 298.15 K
  solubility (mole fraction): 0.00184
In acetonitrile, 304.15 K
  solubility (mole fraction): 0.00254
In acetonitrile, 309.15 K
  solubility (mole fraction): 0.00329
In acetonitrile, 314.15 K
  solubility (mole fraction): 0.00424
In acetonitrile, 319.15 K
  solubility (mole fraction): 0.00544
In acetonitrile, 323.15 K
  solubility (mole fraction): 0.00661
In ethanol, 284.15 K
  solubility (mole fraction): 0.00236
In ethanol, 289.15 K
  solubility (mole fraction): 0.00305
In ethanol, 295.15 K
  solubility (mole fraction): 0.00412
In ethanol, 298.15 K
  solubility (mole fraction): 0.00475
In ethanol, 304.15 K
  solubility (mole fraction): 0.00631
In ethanol, 309.15 K
  solubility (mole fraction): 0.00796
In ethanol, 314.15 K
  solubility (mole fraction): 0.01
In ethanol, 319.15 K
  solubility (mole fraction): 0.0125
In ethanol, 323.15 K
  solubility (mole fraction): 0.0149
In ethyl acetate, 284.15 K
  solubility (mole fraction): 0.00557
In ethyl acetate, 289.15 K
  solubility (mole fraction): 0.00784
In ethyl acetate, 295.15 K
  solubility (mole fraction): 0.0118
In ethyl acetate, 298.15 K
  solubility (mole fraction): 0.0142
In ethyl acetate, 304.15 K
  solubility (mole fraction): 0.0208
In ethyl acetate, 309.15 K
  solubility (mole fraction): 0.0283
In ethyl acetate, 314.15 K
  solubility (mole fraction): 0.0383
In ethyl acetate, 319.15 K
  solubility (mole fraction): 0.0514
In ethyl acetate, 323.15 K
  solubility (mole fraction): 0.0647
In isopropyl acetate, 284.15 K
  solubility (mole fraction): 0.00683
In isopropyl acetate, 289.15 K
  solubility (mole fraction): 0.00838
In isopropyl acetate, 295.15 K
  solubility (mole fraction): 0.0107
In isopropyl acetate, 298.15 K
  solubility (mole fraction): 0.012
In isopropyl acetate, 304.15 K
  solubility (mole fraction): 0.015
In isopropyl acetate, 309.15 K
  solubility (mole fraction): 0.0182
In isopropyl acetate, 314.15 K
  solubility (mole fraction): 0.0218
In isopropyl acetate, 319.15 K
  solubility (mole fraction): 0.0261
In isopropyl acetate, 323.15 K
  solubility (mole fraction): 0.0301
In methanol, 284.15 K
  solubility (mole fraction): 0.00056
In methanol, 289.15 K
  solubility (mole fraction): 0.00078
In methanol, 295.15 K
  solubility (mole fraction): 0.00117
In methanol, 298.15 K
  solubility (mole fraction): 0.00142
In methanol, 304.15 K
  solubility (mole fraction): 0.00207
In methanol, 309.15 K
  solubility (mole fraction): 0.00281
In methanol, 314.15 K
  solubility (mole fraction): 0.0038
In methanol, 319.15 K
  solubility (mole fraction): 0.00508
In methanol, 323.15 K
  solubility (mole fraction): 0.00639
In n-butanol, 284.15 K
  solubility (mole fraction): 0.00085
In n-butanol, 289.15 K
  solubility (mole fraction): 0.00127
In n-butanol, 295.15 K
  solubility (mole fraction): 0.00203
In n-butanol, 298.15 K
  solubility (mole fraction): 0.00253
In n-butanol, 304.15 K
  solubility (mole fraction): 0.00394
In n-butanol, 309.15 K
  solubility (mole fraction): 0.00563
In n-butanol, 314.15 K
  solubility (mole fraction): 0.00799
In n-butanol, 319.15 K
  solubility (mole fraction): 0.0112
In n-butanol, 323.15 K
  solubility (mole fraction): 0.0147
In n-heptane, 284.15 K
  solubility (mole fraction): 5.1e-05
In n-heptane, 289.15 K
  solubility (mole fraction): 7.2e-05
In n-heptane, 295.15 K
  solubility (mole fraction): 0.000113
In n-heptane, 298.15 K
  solubility (mole fraction): 0.00013
In n-heptane, 304.15 K
  solubility (mole fraction): 0.000202
In n-heptane, 309.15 K
  solubility (mole fraction): 0.000282
In n-heptane, 314.15 K
  solubility (mole fraction): 0.000383
In n-heptane, 319.15 K
  solubility (mole fraction): 0.000531
In n-heptane, 323.15 K
  solubility (mole fraction): 0.000684
In n-hexane, 284.15 K
  solubility (mole fraction): 5e-05
In n-hexane, 289.15 K
  solubility (mole fraction): 7e-05
In n-hexane, 295.15 K
  solubility (mole fraction): 0.000111
In n-hexane, 298.15 K
  solubility (mole fraction): 0.000132
In n-hexane, 304.15 K
  solubility (mole fraction): 0.000201
In n-hexane, 309.15 K
  solubility (mole fraction): 0.00028
In n-hexane, 314.15 K
  solubility (mole fraction): 0.000381
In n-hexane, 319.15 K
  solubility (mole fraction): 0.000534
In n-hexane, 323.15 K
  solubility (mole fraction): 0.000681
In toluene, 284.15 K
  solubility (mole fraction): 0.017
In toluene, 289.15 K
  solubility (mole fraction): 0.0226
In toluene, 295.15 K
  solubility (mole fraction): 0.0316
In toluene, 298.15 K
  solubility (mole fraction): 0.0369
In toluene, 304.15 K
  solubility (mole fraction): 0.0507
In toluene, 309.15 K
  solubility (mole fraction): 0.0656
In toluene, 314.15 K
  solubility (mole fraction): 0.0843
In toluene, 319.15 K
  solubility (mole fraction): 0.108
In toluene, 323.15 K
  solubility (mole fraction): 0.131
